This passage reports TGI and GI50 results from PubChem BioAssay (NCI).

The structures appear in SMILES notation.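 1) Cells in 96-well plates. 2) Compound, 48 h, 5 concentrations. 3) Linear interpolation between surrounding doses. 4) Unreached endpoint = highest concentration. Abbreviation: GI50, concentration required for 50% inhibition of growth. TGI: concentration producing complete growth inhibition.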 Bounds are passed on as bounds.

Test systems include HCT-116 colon; UACC-257 melanoma; U251 CNS; M14 melanoma; MOLT-4 leukemia; SNB-75 CNS; NCI/ADR-RES ovarian; SF-539 CNS; HL-60(TB) leukemia; HOP-62 NSCLC.
Holding throughout (experiment): NCI anticancer screen, dose series, 48 h

As for `Cc1c2ccncc2c(C)c2c1[nH]c1ccccc12`, the TGI with HCT-116 colon is 1.68 µM; in the assay on UACC-257 melanoma it was 4.64 µM; in the assay on U251 CNS, 2.08 µM; in the assay with M14 melanoma, 2.33 µM; in the assay on MOLT-4 leukemia it was 1.75 µM; with SNB-75 CNS it was 2.64 µM. Moreover, the TGI in the assay on NCI/ADR-RES ovarian was 2.93 µM; with SF-539 CNS, 2.11 µM; in the assay on HL-60(TB) leukemia, 6.78 µM; in the assay on HOP-62 NSCLC it was 3.13 µM. For the same compound, the GI50 with M14 melanoma was 0.979 µM.
Consider `COc1cc(CNc2nc3cc(C(F)(F)F)ccc3nc2-c2ccccc2)cc(OC)c1OC`, for which the TGI in the assay on HCT-116 colon was over 100 µM; in the assay with UACC-257 melanoma it was over 100 µM; with U251 CNS, over 100 µM; with M14 melanoma it was over 100 µM; with MOLT-4 leukemia it was over 100 µM; with SNB-75 CNS, 44 µM. Also, the TGI was 81.8 µM in the assay with NCI/ADR-RES ovarian, over 100 µM in the assay with SF-539 CNS, 70 µM with HL-60(TB) leukemia and over 100 µM in the assay on HOP-62 NSCLC.
On to `COc1ccccc1N1CCN(CCCNC(=O)c2cc(Cl)c(N)c(Cl)c2)CC1`, for which the TGI is over 100 µM in the assay with HCT-116 colon; 47.8 µM with UACC-257 melanoma; over 100 µM with U251 CNS; 53.1 µM in the assay on M14 melanoma; 92.6 µM in the assay on MOLT-4 leukemia; over 100 µM in the assay on SNB-75 CNS. Besides, the TGI in the assay on NCI/ADR-RES ovarian is over 100 µM; in the assay on SF-539 CNS, over 100 µM; in the assay with HL-60(TB) leukemia, 55.8 µM; in the assay on HOP-62 NSCLC, over 100 µM.
On to `Cc1cn2c(C)csc2c1P(=O)(OC(C)C)OC(C)C`, for which the TGI with HCT-116 colon, in the assay on UACC-257 melanoma, in the assay on U251 CNS, in the assay on M14 melanoma, in the assay on MOLT-4 leukemia and in the assay with SNB-75 CNS was over 100 µM each time. For the same compound, the TGI with NCI/ADR-RES ovarian, with SF-539 CNS, in the assay with HL-60(TB) leukemia and with HOP-62 NSCLC was over 100 µM each time.
Turning to `NS(=O)(=O)c1ccc(NC(NC(=O)C(C(F)(F)F)C(F)(F)F)(C(F)(F)F)C(F)(F)F)cc1`, the TGI with HCT-116 colon, in the assay on UACC-257 melanoma, in the assay on U251 CNS, in the assay with M14 melanoma, in the assay on MOLT-4 leukemia and in the assay with SNB-75 CNS was over 100 µM in each case. In addition, the TGI in the assay on NCI/ADR-RES ovarian, in the assay with SF-539 CNS, in the assay on HL-60(TB) leukemia and with HOP-62 NSCLC was over 100 µM in each case.
With `CC(C)(C)C(=O)C(Cc1ccccc1)C(=O)C(C)(C)C`, the TGI in the assay with HCT-116 colon, with UACC-257 melanoma, in the assay on U251 CNS, with M14 melanoma, in the assay on MOLT-4 leukemia and with SNB-75 CNS was over 100 µM each time. The TGI in the assay with NCI/ADR-RES ovarian, with SF-539 CNS, in the assay on HL-60(TB) leukemia and in the assay on HOP-62 NSCLC was over 100 µM throughout.
On to `COP(=O)(OC)C12CCOCCN1c1ccccc1C2=O` (stereo unspecified), for which the TGI in the assay with HCT-116 colon, in the assay on UACC-257 melanoma, with U251 CNS, in the assay with M14 melanoma, in the assay on MOLT-4 leukemia and in the assay on SNB-75 CNS was over 100 µM in each case. The TGI with NCI/ADR-RES ovarian, in the assay on SF-539 CNS, in the assay with HL-60(TB) leukemia and in the assay with HOP-62 NSCLC was over 100 µM each time.
Take `COC(=O)C1(Cc2ccc3c(c2)CCC3)Cc2ccccc2C1=O` (stereo unspecified): the TGI is 46.6 µM in the assay on HCT-116 colon; 76 µM with UACC-257 melanoma; 37.2 µM in the assay on U251 CNS; 32.4 µM in the assay with M14 melanoma; 52.3 µM with MOLT-4 leukemia; over 100 µM in the assay with SNB-75 CNS. Moreover, the TGI with NCI/ADR-RES ovarian was over 100 µM; with SF-539 CNS, 32.9 µM; with HL-60(TB) leukemia it was 32.4 µM; with HOP-62 NSCLC it was 59.3 µM.
For `O=C(O)CC(NC(=O)/C(=C/c1ccccc1O)NC(=O)c1ccccc1)C(=O)O` (stereo unspecified), the TGI in the assay on HCT-116 colon, with UACC-257 melanoma, in the assay on U251 CNS, with M14 melanoma, with MOLT-4 leukemia and in the assay with SNB-75 CNS was over 100 µM throughout. Besides, the TGI in the assay with NCI/ADR-RES ovarian is over 100 µM; with SF-539 CNS, over 100 µM; with HL-60(TB) leukemia, 76.5 µM; in the assay with HOP-62 NSCLC, over 100 µM.
As to `N#CCCN(CCC#N)c1ccc(/C=C2\SC(=S)NC2=O)cc1Br`, the TGI with HCT-116 colon is over 100 µM; with UACC-257 melanoma, over 100 µM; with U251 CNS it was 35.1 µM; in the assay with M14 melanoma, over 100 µM; with MOLT-4 leukemia, over 100 µM; in the assay with SNB-75 CNS it was over 100 µM. For the same compound, the TGI is over 100 µM in the assay with NCI/ADR-RES ovarian, over 100 µM with SF-539 CNS, over 100 µM in the assay with HL-60(TB) leukemia and 40.4 µM in the assay on HOP-62 NSCLC.
Regarding `Cc1cc(/N=C/c2ccc(C#N)cc2)n(-c2ccccc2)n1`, the TGI in the assay with HCT-116 colon, with UACC-257 melanoma, with U251 CNS, in the assay on M14 melanoma, in the assay with MOLT-4 leukemia and in the assay on SNB-75 CNS was over 100 µM each time. For the same compound, the TGI with NCI/ADR-RES ovarian was over 100 µM; in the assay on SF-539 CNS, over 100 µM; with HL-60(TB) leukemia, 76.6 µM; with HOP-62 NSCLC, over 100 µM.
Take `N#CC(=N)c1ncn(-c2ccccc2N)c1N`: the TGI in the assay with HCT-116 colon, in the assay with UACC-257 melanoma, in the assay with U251 CNS, with M14 melanoma, with MOLT-4 leukemia and in the assay on SNB-75 CNS was over 100 µM in each case. In addition, the TGI with NCI/ADR-RES ovarian, in the assay on SF-539 CNS, in the assay with HL-60(TB) leukemia and in the assay with HOP-62 NSCLC was over 100 µM each time.
